In US20080058703A1, “Drug electrotransport with hydration measurement of hydratable reservoir” (priority 2006, published 2008):

Test: In vitro skin flux of apomorphine by electrotransport from hydrated TECOGEL matrix (horizontal diffusion cell)
Assay type: in vitro ADME
Details: in vitro electrotransport from hydrated TECOGEL matrix across heat separated human epidermis
Description: The diamond symbols show the average data points at particular time intervals and the vertical lines show the standard deviation. Measurement of impedance during hydration of TECOGEL® is reported in FIG. 8 and described in Example 3 below. The flux of apomorphine free base is plotted as a function of electrotransport time (in hrs). The unit for the flux is μg/cm^2 hr. […] It is noted that the TECOGEL® was used to illustrate that hydration can be done and the level of hydration measured. The exact type of polyurethane gel used is not critical as long a gel can be formed that can allow drug ions to migrate under an electrical potential.
The following methodology was used for the in vitro flux experiments for illustrative purposes:
Custom-built horizontal diffusion cells made in-house from DELRIN® polymeric material were used for the in vitro skin flux experiments and heat separated human epidermis was used. A consumable Ag electrode with the same polarity as the drug was adhered to one end of a DELRIN® material diffusion cell that functioned as the donor cell. […]
A Hanson Research MICROETTE™ collection system, interfaced to the experimental set up, collected the drug containing receptor solution from the reservoir underneath the skin directly into HPLC vials. […] The Hanson system collected samples to be analyzed by an HPLC to determine delivery efficiency of the drug in the formulation. […]

## CN1CCc2cccc3c2[C@H]1Cc1ccc(O)c(O)c1-3 [apomorphine]
  rise to steady state time: about 3 hours
37° C., until about 24 hours
  steady state flux of apomorphine free base: about 32 μg/cm^2 hr
